Columns and labels:
ELAM-1 [1] = test: Adhesion of ELAM-transfected COS cells to glycolipids adsorbed to PVC microtiter wells or resolved on TLC plates (controlled detachment force); assay type: cell-based, human; conditions: ELAM-transfected COS cells as probes
Procedure: The invention also includes a method of assaying candidate ligands for their ability to adhere to ELAM-1. The method comprises attaching candidate ligands to a substrate surface and then contacting the substrate surface thereon with recombinant cells, that are genetically engineered to express high levels of ELAM-1, for a sufficient time to allow the cells to adhere to the substrate bearing the candidate ligand. […] Candidate ligands which adhere to ELAM-1 are determined via the labels on the cells. Such molecules are isolated, characterized, and their structure specifically identified. Accordingly, the invention also includes glycolipid ligands which can be isolated via such an assay procedure.
COS cells, expressing membrane-bound ELAM-1, were metabolically radiolabeled with ^32 PO4 and used as probes in two assay systems to screen for recognition of glycolipids. In the first, glycolipids were adsorbed to the bottoms of PVC microtiter wells, while in the second they were resolved on TLC plates. […]

ELAM-1 [2] = test: Inhibition by carbohydrates of ELAM-transfected COS cell adhesion to glycolipids; assay type: cell-based, human; conditions: for inhibition of cell adhesion to glycolipids: at 100 μg/ml, glycolipids eluted from DEAE-Sepharose with 5 mM potassium acetate; for inhibition of adhesion of ELAM-1 transfected COS cells to sialylated glycolipids: glycolipids resolved on TLC plates or adsorbed on PVC microtiter wells, concentration not given
Description: Radiolabeled COS cells expressing cell surface ELAM-1 were used as probes to screen human leukocyte-derived glycolipids. ELAM-1 transfected COS cells adhered to a subset of sialylated glycolipids which were resolved on TLC plates or adsorbed on PVC microtiter wells. Adhesion to these glycolipids required calcium, but was not inhibited by heparin, chondroitin sulfate, keratin sulfate, or yeast phosphomannan (PPME).
COS cells, expressing membrane-bound ELAM-1, were metabolically radiolabeled with ^32 PO4 and used as probes in two assay systems to screen for recognition of glycolipids. In the first, glycolipids were adsorbed to the bottoms of PVC microtiter wells, while in the second they were resolved on TLC plates. In both assays these glycolipids were probed for their ability to support adhesion of ELAM-transfected COS cells, untransfected COS cells, or COS cells transfected with a plasmid containing an irrelevant cDNA, under conditions of controlled detachment force (see Swank-Hill, P., et al., Anal. Biochem. (1987) 183:27; and Blackburn, C. C., et al., J. Biol. Chem. (1986) 261:2873 each of which is incorporated herein by reference to disclose the details of such assaying methodology).
The material not retained on the column and in fractions eluted by step-wise increases in salt concentration (from 5 mM to 250 mM potassium acetate in methanol) were screened for cell adhesion.

## CC(=O)N[C@H]1[C@H]([C@H](O)[C@H](O)CO)O[C@@](O[C@H]2[C@@H](O)[C@@H](CO)O[C@@H](O[C@H]3[C@H](O[C@@H]4O[C@@H](C)[C@@H](O)[C@@H](O)[C@@H]4O)[C@@H](NC(C)=O)C(O)O[C@@H]3CO)[C@@H]2O)(C(=O)O)C[C@@H]1O (stereo partly drawn) [Neu NAc α2-3Gal-β1-4(Fuc α1-3)-GlcNAc]
ELAM-1 [1]
  recognition by / binding to ELAM-1: effectively bind to ELAM-1

## chondroitin sulfate
ELAM-1 [2]
  inhibition of cell adhesion to glycolipids: not inhibited
  inhibition of adhesion of ELAM-1 transfected COS cells to sialylated glycolipids: not inhibited

## heparin
ELAM-1 [2]
  inhibition of cell adhesion to glycolipids: not inhibited
  inhibition of adhesion of ELAM-1 transfected COS cells to sialylated glycolipids: not inhibited

## keratin sulfate
ELAM-1 [2]
  inhibition of cell adhesion to glycolipids: not inhibited
  inhibition of adhesion of ELAM-1 transfected COS cells to sialylated glycolipids: not inhibited

## yeast phosphomannan
ELAM-1 [2]
  inhibition of cell adhesion to glycolipids: not inhibited
  inhibition of adhesion of ELAM-1 transfected COS cells to sialylated glycolipids: not inhibited

— patent publication US5648344A, “Methods of treating inflammation using selection binding compounds” (Glycomed Incorporated, priority 1992, dated 1997)
